This assay concerns human alpha 1b adrenergic receptor. Put plainly: Selective Binding Assay, alpha 1b (competition with [125I]-HEAT). As to conditions: alpha 1a versus alpha 1b. The method, then:
Membranes prepared from stably transfected human alpha 1d and alpha 1b cell lines (ATCC […] and CRL 11139, respectively) were used to identify compounds that selectively bind to the human alpha 1a adrenergic receptor. These competition binding) reactions (total volume=200 μl) contained 50 mM Tris-HCl pH. 7.4, 5 mM EDTA, 150 mM NaCl, 100 pM [^125 I]-HEAT, membranes prepared from cell lines transfected with the respective alpha 1 subtype expression plasmid and increasing amounts of unlabeled ligand. Reactions were incubated at room temperature for one hour with shaking. Reactions were filtered onto Whatman GF/C glass fiber filters with a Inotec 96 well cell harvester. Filters were washed three times with ice cold buffer and bound radioactivity was determined (Ki).

Data on two molecules can be found in US6228870A, “Oxazolidinones useful as alpha 1a adrenoceptor antagonists” (Merck & Co., Inc., priority 1999, dated 2001).

On to `COC[C@@H]1OC(=O)N(C(=O)NCCCN2CCC(c3ccccc3C#N)CC2)[C@H]1c1ccc(F)c(F)c1` [Example 11, (4S,5R)-4-(3,4-Difluorophenyl)-5-methoxymethyl-2-oxo-oxazolidine-3-carboxylic acid {3-[4-(2-cyanophenyl)piperidin-1-yl]propyl}amide], for which the “selectivity in binding to alpha 1a receptors versus alpha 1b receptors” value is on record as “about 184 fold”. For the molecule `COC[C@@H]1OC(=O)N(C(=O)NCCCN2CCC(c3ccc(F)cc3C#N)CC2)[C@H]1c1ccc(F)c(F)c1` [Example 13, (4S,5R)-4-(3,4-Difluorophenyl)-5-methoxymethyl-2-oxo-oxazolidine-3-carboxylic acid {3-[4-(2-cyano-4-fluorophenyl)piperidin-1-yl]propyl}amide], the “selectivity in binding to alpha 1a receptors versus alpha 1b receptors” value is recorded as “about 453 fold”.
